Test results taken from ChEMBL document CHEMBL3046904, “Synthesis, characterization, bioactivity, and POM analyses of isothiochromeno[3,4-e][1,2]oxazines” (2013).

How the values were obtained:
Assay type in all cases: functional
SF-268 = assay: Cytotoxicity against Homo sapiens (human) SF268 assessed as cell growth at 10^-4 M after 48 hr by Alamar Blue assay; settings: SF-268, 48 h, read-out: Activity
MCF7 = assay: Cytotoxicity against Homo sapiens (human) MCF7 assessed as cell growth at 10^-4 M after 48 hr by Alamar Blue assay; settings: MCF7, 48 h, read-out: Activity
NCI-H460 = assay: Cytotoxicity against Homo sapiens (human) NCI-H460 assessed as cell growth at 10^-4 M after 48 hr by Alamar Blue assay; settings: NCI-H460, 48 h, read-out: Activity

Compound	growth at 100 µM (SF-268) [%]	growth at 100 µM (MCF7) [%]	growth at 100 µM (NCI-H460) [%]
COc1ccc(C2=C3SC=c4ccccc4=C3ON=C2c2ccc(Cl)cc2)cc1	102	51	85
Cc1ccc(C2=NOC3=c4ccccc4=CSC3=C2c2ccc([N+](=O)[O-])cc2)cc1	111	99	97
O=[N+]([O-])c1ccc(C2=C3SC=c4ccccc4=C3ON=C2c2ccc(Cl)cc2)cc1	104	85	97
C1=c2ccccc2=C2ON=C(c3ccccc3)C(c3ccccc3)=C2S1	97	104	94
Cc1ccc(C2=NOC3=c4ccccc4=CSC3=C2c2ccccc2)cc1	66	51	92
COc1ccc(C2=NOC3=c4ccccc4=CSC3=C2c2ccccc2)cc1	106	97	101
O=[N+]([O-])c1ccc(C2=NOC3=c4ccccc4=CSC3=C2c2ccccc2)cc1	101	62	100
Clc1ccc(C2=NOC3=c4ccccc4=CSC3=C2c2ccccc2)cc1	95	95	92
